Values after ≈ are worked out from the molar mass of the structure shown.

Holding throughout (type): cell-based
Test [1] has as its system S. aureus ASAU001 (Susceptible Organism ATCC 29213). Kind of test: MIC assay, S. aureus ASAU001. As to conditions: Staphylococcus aureus, ATCC29213, read-out: MIC ASAU 001. The protocol: (§1) The in vitro MIC for bacterial isolates may be obtained in the following manner: a test compound is incorporated into a series of two-fold dilutions in cation adjusted Mueller-Hinton broth (CAMHB). Different bacterial strains diluted to provide a uniform inoculum are added to the CAMHB containing test compounds. A well without test compound is included for each strain as a growth control. […] The procedures used in these experiments are generally those standardized by the Clinical and Laboratory Standards Institute (CLSI), as set forth in the CLSI publication entitled “M7-A7. Methods for dilution antimicrobial susceptibility tests for bacteria that grow aerobically; approved standard-seventh edition.” (2006), which is incorporated by reference as if fully set forth herein. The following exemplifies such a procedure although it is to be understood that modifications of the procedure may be implemented as required.
(§2) Two-fold dilutions of the test compounds are prepared in CAMHB at 2× the concentration range to be tested if the compounds are soluble in aqueous solution. Alternately, dimethylsulfoxide (DMSO) is used to prepare two-fold dilutions at 10× the concentration range to be tested. Reference drugs such as cefotaxime, vancomycin or imipenem are used as positive controls. A few isolated colonies are retrieved from a pure culture prepared on an agar plate and suspended in PBS until the turbidity of the suspension matches a 0.5 McFarland standard which is equal to approximately 10^8 sCFU/mL. This solution is further diluted in CAMHB to 10^6CFU/mL if compounds are diluted in CAMHB and 5×10^5 CFU/mL if compounds are diluted in DMSO. The CAMHB plates containing the compound dilutions are combined in equal volumes with the higher density inoculum, or 10 μL of the DMSO dilutions are added to the lower density inoculum. When S. aureus is the organism being tested and the compound is oxacillin, a beta-lactam or a carbacephem compound of the present invention, 2% NaCl is added to the growth media. The plates are then incubated for 16-20 hours at 35° C. The plates are then observed to determine which concentration of the test compound is the MIC.

Test [2] deals with S. aureus ASAU1033 (MRSA, CIP, ERY, CLIN, TET, GEN resistant). Kind of test: MIC assay, S. aureus ASAU1033. As to conditions: Staphylococcus aureus, read-out: MIC ASAU 1033. On the procedure: as §1, §2
The subject of test [3] is S. aureus ASAU1043 (MRSA, CIP, ERY, CLI, GEN resistant). Kind of test: MIC assay, S. aureus ASAU1043. As to conditions: Staphylococcus aureus, read-out: MIC ASAU 1043. The protocol: as §1, §2
Test [4] relates to S. aureus ASAU1028 (CA-MRSA, USA400). Kind of test: MIC assay, S. aureus ASAU1028. To be noted: Staphylococcus aureus, read-out: MIC ASAU 1028. The protocol:
as §1, §2

Test [5] concerns S. aureus ASAU1029 (CA-MRSA, USA300). Kind of test: MIC assay, S. aureus ASAU1029. To be noted: Staphylococcus aureus, read-out: MIC ASAU 1029. The protocol:
as §1, §2

What is called MIC is the smallest concentration in the dilution series that meets the test's criterion for growth inhibition. As to `Nc1nc(/C(=N/O)C(=O)N[C@@H]2C(=O)N3C(C(=O)O)=C(Sc4cccnc4N)CC[C@H]23)c(Cl)s1` [28/1, (6R,7S,Z)-7-(2-(2-amino-5-chlorothiazol-4-yl)-2-(hydroxyimino)acetamido)-3-(2-aminopyridin-3-ylthio)-8-oxo-1-aza-bicyclo[4.2.0]oct-2-ene-2-carboxylic Acid], the MIC in test [1] was not above 1 µg/mL; in test [2], more than 8 µg/mL; in test [3], more than 8 µg/mL; in test [4], not above 1 µg/mL; in test [5] it was 1 to 8 µg/mL (≈ 1.96 to 15.7 µM).
As to `CNCCSCc1ncccc1SC1=C(C(=O)O)N2C(=O)[C@@H](NC(=O)/C(=N\O)c3nc(N)sc3Cl)[C@H]2CC1` [29/1, (6R,7S,Z)-7-(2-(2-amino-5-chlorothiazol-4-yl)-2-(hydroxyimino)acetamido)-3-(2-((2-(methylamino)ethylthio)methyl)pyridin-3-ylthio)-8-oxo-1-aza-bicyclo[4.2.0]oct-2-ene-2-carboxylic acid], the MIC in test [1] was not above 1 µg/mL; in test [2], 1 to 8 µg/mL (≈ 1.67 to 13.4 µM); in test [3] it was 1 to 8 µg/mL (≈ 1.67 to 13.4 µM); in test [4] it was not above 1 µg/mL; in test [5], not above 1 µg/mL.
For `Nc1nc(/C(=N/O)C(=O)N[C@@H]2C(=O)N3C(C(=O)O)=C(Sc4cccnc4CSC4CCNC4)CC[C@H]23)c(Cl)s1` (stereo partly drawn) [30/1, (6R,7S,Z)-7-(2-(2-amino-5-chlorothiazol-4-yl)-2-(hydroxyimino)acetamido)-8-oxo-3-(2-((pyrrolidin-3-ylthio)methyl)pyridin-3-ylthio)-1-aza-bicyclo[4.2.0]oct-2-ene-2-carboxylic acid], the MIC in test [1] is not above 1 µg/mL; in test [2], 1 to 8 µg/mL (≈ 1.64 to 13.1 µM); in test [3], 1 to 8 µg/mL (≈ 1.64 to 13.1 µM); in test [4] it was not above 1 µg/mL; in test [5], not above 1 µg/mL.
Regarding `NCc1ncccc1SC1=C(C(=O)O)N2C(=O)[C@@H](NC(=O)/C(=N\O)c3nc(N)sc3Cl)[C@H]2CC1` [31/1, (6R,7S,Z)-7-(2-(2-amino-5-chlorothiazol-4-yl)-2-(hydroxyimino)acetamido)-3-(2-(aminomethyl)pyridin-3-ylthio)-8-oxo-1-aza-bicyclo[4.2.0]oct-2-ene-2-carboxylic Acid], the minimum inhibitory concentration (MIC) was not above 1 µg/mL in test [1]; 1 to 8 µg/mL (≈ 1.91 to 15.3 µM) in test [2]; 1 to 8 µg/mL (≈ 1.91 to 15.3 µM) in test [3]; not above 1 µg/mL in test [4]; not above 1 µg/mL in test [5].
On to `NCCc1ncccc1SC1=C(C(=O)O)N2C(=O)[C@@H](NC(=O)/C(=N\O)c3nc(N)sc3Cl)[C@H]2CC1` [32/1, (6R,7S,Z)-7-(2-(2-amino-5-chlorothiazol-4-yl)-2-(hydroxyimino)acetamido)-3-(2-(2-aminoethyl)pyridin-3-ylthio)-8-oxo-1-aza-bicyclo[4.2.0]oct-2-ene-2-carboxylic Acid], for which the MIC in test [1] is not above 1 µg/mL; in test [2], 1 to 8 µg/mL (≈ 1.86 to 14.9 µM); in test [3], more than 8 µg/mL; in test [5] it was more than 8 µg/mL.
With `Nc1nc(/C(=N/O)C(=O)N[C@@H]2C(=O)N3C(C(=O)O)=C(Sc4cccnc4)CC[C@H]23)c(Cl)s1` [34/1, (6R,7S,Z)-7-(2-(2-amino-5-chlorothiazol-4-yl)-2-(hydroxyimino)acetamido)-8-oxo-3-(pyridin-3-ylthio)-1-aza-bicyclo[4.2.0]oct-2-ene-2-carboxylic Acid], the MIC in test [1] was not above 1 µg/mL; in test [2] it was more than 8 µg/mL; in test [3], more than 8 µg/mL; in test [4] it was 1 to 8 µg/mL (≈ 2.02 to 16.2 µM); in test [5] it was more than 8 µg/mL.
With `CO/N=C(\C(=O)N[C@@H]1C(=O)N2C(C(=O)O)=C(Sc3ccncc3)CC[C@H]12)c1nc(N)sc1Cl` [37/1, (6R,7S,Z)-7-(2-(2-amino-5-chlorothiazol-4-yl)-2-(methoxyimino)acetamido)-8-oxo-3-(pyridin-4-ylthio)-1-aza-bicyclo[4.2.0]oct-2-ene-2-carboxylic Acid], the MIC was not above 1 µg/mL in test [1]; 1 to 8 µg/mL (≈ 1.96 to 15.7 µM) in test [2]; more than 8 µg/mL in test [3]; 1 to 8 µg/mL (≈ 1.96 to 15.7 µM) in test [4]; more than 8 µg/mL in test [5].
As for `CO/N=C(\C(=O)N[C@@H]1C(=O)N2C(C(=O)O)=C(Sc3nc(C)c(C)s3)CC[C@H]12)c1nc(N)sc1Cl` [38/1, (6R,7S,Z)-7-(2-(2-amino-5-chlorothiazol-4-yl)-2-(methoxyimino)acetamido)-3-(4,5-dimethylthiazol-2-ylthio)-8-oxo-1-aza-bicyclo[4.2.0]oct-2-ene-2-carboxylic Acid], the MIC in test [1] was not above 1 µg/mL; in test [2], 1 to 8 µg/mL (≈ 1.84 to 14.7 µM); in test [3], more than 8 µg/mL; in test [4] it was not above 1 µg/mL; in test [5] it was not above 1 µg/mL.
Turning to `CO/N=C(\C(=O)N[C@@H]1C(=O)N2C(C(=O)O)=C(Sc3cccnc3CCN)CC[C@H]12)c1nc(N)sc1Cl` [39/1, (6R,7S,Z)-7-(2-(2-amino-5-chlorothiazol-4-yl)-2-(methoxyimino)acetamido)-3-(2-(2-aminoethyl)pyridin-3-ylthio)-8-oxo-1-aza-bicyclo[4.2.0]oct-2-ene-2-carboxylic Acid], the minimal inhibitory concentration (MIC) in test [1] was not above 1 µg/mL; in test [2], more than 8 µg/mL; in test [3], more than 8 µg/mL; in test [4], 1 to 8 µg/mL (≈ 1.81 to 14.5 µM); in test [5], 1 to 8 µg/mL (≈ 1.81 to 14.5 µM).
Turning to `CO/N=C(\C(=O)N[C@@H]1C(=O)N2C(C(=O)O)=C(Sc3cccnc3N)CC[C@H]12)c1nc(N)sc1Cl` [40/1, (6R,7S)-7-(2-(2-amino-5-chlorothiazol-4-yl)-2-(methoxyimino)acetamido)-3-(2-aminopyridin-3-ylthio)-8-oxo-1-aza-bicyclo[4.2.0]oct-2-ene-2-carboxylic acid], the MIC was not above 1 µg/mL in test [1]; more than 8 µg/mL in test [2]; more than 8 µg/mL in test [3]; 1 to 8 µg/mL (≈ 1.91 to 15.3 µM) in test [4]; more than 8 µg/mL in test [5].
Turning to `CNCCSCc1ncccc1SC1=C(C(=O)O)N2C(=O)[C@@H](NC(=O)/C(=N\OC)c3nc(N)sc3Cl)[C@H]2CC1` [41/1, (6R,7S,Z)-7-(2-(2-amino-5-chlorothiazol-4-yl)-2-(methoxyimino)acetamido)-3-(2-((2-(methylamino)ethylthio)methyl)pyridin-3-ylthio)-8-oxo-1-aza-bicyclo[4.2.0]oct-2-ene-2-carboxylic Acid], the MIC in test [1] was not above 1 µg/mL; in test [2] it was more than 8 µg/mL; in test [3] it was more than 8 µg/mL; in test [4] it was 1 to 8 µg/mL (≈ 1.63 to 13.1 µM).
For the molecule `CO/N=C(\C(=O)N[C@@H]1C(=O)N2C(C(=O)O)=C(Sc3cccnc3CN)CC[C@H]12)c1nc(N)sc1Cl` [43/1, (6R,7S,Z)-7-(2-(2-amino-5-chlorothiazol-4-yl)-2-(methoxyimino)acetamido)-3-(2-(aminomethyl)pyridin-3-ylthio)-8-oxo-1-aza-bicyclo[4.2.0]oct-2-ene-2-carboxylic acid], the MIC was not above 1 µg/mL in test [1]; more than 8 µg/mL in test [2]; more than 8 µg/mL in test [3]; more than 8 µg/mL in test [4]; more than 8 µg/mL in test [5].
On to `Nc1nc(/C(=N/O)C(=O)N[C@@H]2C(=O)N3C(C(=O)O)=C(Sc4ccncc4)CC[C@H]23)ns1` [44/1, (6R,7S,Z)-7-(2-(5-amino-1,2,4-thiadiazol-3-yl)-2-(hydroxyimino)acetamido)-8-oxo-3-(pyridin-4-ylthio)-1-aza-bicyclo[4.2.0]oct-2-ene-2-carboxylic Acid], for which the minimum inhibitory concentration (MIC) is not above 1 µg/mL in test [1]; more than 8 µg/mL in test [2]; more than 8 µg/mL in test [3]; 1 to 8 µg/mL (≈ 2.17 to 17.3 µM) in test [4]; not above 1 µg/mL in test [5].
Regarding `Nc1nc(/C(=N/O)C(=O)N[C@@H]2C(=O)N3C(C(=O)O)=C(Sc4nnc(N)s4)CC[C@H]23)ns1` [45/1, (6R,7S,Z)-7-(2-(5-amino-1,2,4-thiadiazol-3-yl)-2-(hydroxyimino)acetamido)-3-(5-amino-1,3,4-thiadiazol-2-ylthio)-8-oxo-1-aza-bicyclo[4.2.0]oct-2-ene-2-carboxylic Acid], the MIC in test [1] is not above 1 µg/mL; in test [2], more than 8 µg/mL; in test [3], more than 8 µg/mL; in test [4], 1 to 8 µg/mL (≈ 2.07 to 16.5 µM); in test [5] it was not above 1 µg/mL.
Consider `Nc1nc(/C(=N/O)C(=O)N[C@@H]2C(=O)N3C(C(=O)O)=C(Sc4nncs4)CC[C@H]23)ns1` [46/1, (6R,7S,Z)-3-(1,3,4-thiadiazol-2-ylthio)-7-(2-(5-amino-1,2,4-thiadiazol-3-yl)-2-(hydroxyimino)acetamido)-8-oxo-1-aza-bicyclo[4.2.0]oct-2-ene-2-carboxylic Acid], for which the MIC is not above 1 µg/mL in test [1]; more than 8 µg/mL in test [2]; more than 8 µg/mL in test [3]; 1 to 8 µg/mL (≈ 2.13 to 17.1 µM) in test [4]; not above 1 µg/mL in test [5].

Values taken from US8445476B2, “Carbacephem β-lactam antibiotics” (Achaogen, Inc., priority 2007, dated 2013).
